The values below come from ChEMBL document CHEMBL3576823, “Cystargolides, 20S Proteasome Inhibitors Isolated from Kitasatospora cystarginea” (J Nat Prod, 2015).

Molecules are shown by their SMILES. pIC50, pKi: −log10 of the molar value.

The target in assay [1] is T1, Proteasome Macropain subunit MB1 (Homo sapiens, UniProt P28074).
T1 sequence (P28074 whole entry): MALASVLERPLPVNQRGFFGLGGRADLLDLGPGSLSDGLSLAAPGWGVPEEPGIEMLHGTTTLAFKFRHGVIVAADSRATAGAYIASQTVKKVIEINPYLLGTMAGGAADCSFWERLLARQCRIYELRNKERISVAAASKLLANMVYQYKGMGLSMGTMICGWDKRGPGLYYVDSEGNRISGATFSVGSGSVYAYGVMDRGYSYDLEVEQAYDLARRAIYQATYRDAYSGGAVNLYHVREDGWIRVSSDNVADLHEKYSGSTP
The assay can be described thus: Inhibition of chymotrypsin-like activity of human erythrocyte-derived 20S proteasome using Suc-LLVY-AMC as substrate preincubated for 10 mins followed by substrate addition measured every 15 secs for 30 mins by fluorescence assay.

The nature of assay [2]: Inhibition of chymotrypsin-like activity of rabbit 20S proteasome using Suc-LLVY-AMC as substrate after 2 hrs by fluorescence assay. Details: species or system Oryctolagus cuniculus.
The nature of assay [3]: Inhibition of proteasome (unknown origin). More on the design: species or system Homo sapiens.

In assay [1], `CC[C@H](C)[C@H](NC(=O)[C@@H](NC(=O)C1OC(=O)C1C(C)C)C(C)C)C(=O)O` (stereo not given in full) had a pIC50 of 6.44.

Take `CC[C@H](C)[C@@H]1C(=O)O[C@H]1C(=O)N[C@H]1C[C@H]1C[C@H](NC(=O)[C@H](C)N)C(=O)O` [BELACTOSIN A]: the pIC50 in assay [2] is 6.68.

`CC[C@H](C)[C@@H]1C(=O)O[C@H]1C(=O)NCCC[C@H](NC(=O)[C@H](C)N)C(=O)O` [BELACTOSIN C] gave a pIC50 in assay [2] of 6.68.

In assay [3], `CC(C)C[C@H](NC(=O)[C@H](Cc1ccccc1)NC(=O)c1cnccn1)B(O)O` [BORTEZOMIB] showed a pKi of 9.22.

In turn, `CC(C)C[C@H](NC(=O)[C@H](CCc1ccccc1)NC(=O)CN1CCOCC1)C(=O)N[C@@H](Cc1ccccc1)C(=O)N[C@@H](CC(C)C)C(=O)[C@@]1(C)CO1` [CARFILZOMIB] gave a pIC50 in assay [3] of 8.30.
